In paper PMC8162404, “Proteomimetic surface fragments distinguish targets by function” (Chemical Science, 2020):

Key:
[1] = biological target: T1, RecQ-WH (Escherichia coli, UniProt P15043); experiment: Pull-down assay with immobilized protein and LSM libraries; set-up: species or system E. coli; details: H14 library; 1:1 binding assumed; read-out: Surface mapping KD (apparent)
T1 construct: coding for residues 408– 523 of E. coli RecQ; made in house; host or cells: E. coli BL21(DE3)
Experimental: Pull-down assays with immobilized test proteins and foldameric LSM libraries were carried out. Proteins were equilibrated with LSM probes, and equilibrium bound fractions (FB) were determined from the unbound fractions measured by HPLC-MS methods. Hits were corrected with background binding of the resin. The protocol allowed all binding events to equilibrate irrespective of affinity, specificity, and binding kinetics. This was essential to judge overall druggability and promiscuity. Importantly, the concentration of protein and the total concentration of foldameric LSMs were equimolar, which minimized competition between the probes. This experimental setup approximated independent binding of individual library members. Results were visualized as heat maps of dissociation constants (Fig. 3).
Pull-down assay and data analysis
Pull-down assay. LSM sublibraries were screened separately as previously described.(2) Experiments were performed in the following buffers: (i) 20 mM pH 7.4 HEPES, 150 mM NaCl, 5 mM CaCl2 for CaM; (ii) 50 mM pH 7.4 HEPES, 150 mM NaCl, 1 mM TCEP, 1 mM CaCl2 for S100 proteins; (iii) 20 mM pH 7.4 HEPES, 150 mM NaCl, 1 mM TCEP for Gal-1 and (iv) 20 mM pH 7.4 HEPES, 150 mM NaCl for RecQ-WH. Assays were performed in paper filter spin cups (Thermo Scientific) with sample volumes of 100 µl. Hexahistidine-tagged proteins were immobilized on previously washed Co-NTA resin (TALON, Takara Bio USA, Inc., Mountain View, CA) in 64 µM final concentration. LSM sublibrary was added, in which each of the 64 library members were used at a concentration of 1 µM. Samples were incubated at room temperature for 30 min with shaking at 100 rpm. Then, samples were centrifuged at 1000 rpm for 2 min and washed with 100 µl pull-down buffer to remove unbound compounds.
The control experiments were performed using the same compounds and the resin but without the immobilized protein. In case of competitive assays, competitor peptides were added to LSM sublibrary samples in 200 µM final concentration. In the case of Gal-1, lactose (competitor) was used in a concentration of 10 mM. Experiments were performed at least twice. Mean […]
LC-MS methods and parameters. HPLC/ESI-MS analysis was used to characterize the samples from the pull-down assay. LC-MS analysis was performed with a Thermo Scientific Dionex UltiMate 3000 HPLC system interfaced to an LTQ ion trap mass spectrometer (Thermo Electron Corp., San Jose, CA, USA). Samples were injected onto an Aeris Widepore XB-C18 (250 x 4.6 mm) analytical HPLC column using gradient elution 5-80 % solution B during 25 minutes. For pull-down samples, eluent composition was 0.1% acetic acid in distilled water (Solution A) and 0.1% acetic acid in acetonitrile (solution B). Mass spectra were acquired in full scan mode from 200 to 2000 m/z range. For overlapping peaks, selective reaction monitoring (SRM) was […]
MS data analysis. Thermo Xcalibur 2.2 software was used for peak identification and integration. The majority of the foldameric fragments could be resolved independently via HPLC-MS/MS measurements based on molecular weight, MS fragmentation pattern and retention time. Peaks of some foldamers with β3-hIle or β3-hLeu in position R2 could not be resolved, these were integrated and averaged. In the processing method, each sample component was associated to a chromatographic peak based on previously identified mass (m/z) and retention time (ref (2) and Table S7-10). Using ICIS peak detection algorithm, the general detection and integration criteria were: smoothing points: 5, baseline window: 80, area noise factor: 5, peak noise factor: 10. Using these processing setups, all raw data files were reprocessed together and analyzed. Errors in peak identification during the automatic processing were corrected manually.
Calculation of the discussed parameters
1. Bound fractions (FB.) were calculated from the HPLC-MS intensity loss of the LSM probes compared to the control where no protein was immobilized to the resin: […]

[2] = biological target: T2, Gal-1 (Homo sapiens, UniProt P09382); experiment: Competition pull-down with lactose; assay type: binding; details: H14 library; lactose 10 mM; read-out: Surface mapping KD (apparent), competition
T2 construct: made in house; host or cells: E. coli BL21(DE3)
T2 sequence (P09382 whole entry): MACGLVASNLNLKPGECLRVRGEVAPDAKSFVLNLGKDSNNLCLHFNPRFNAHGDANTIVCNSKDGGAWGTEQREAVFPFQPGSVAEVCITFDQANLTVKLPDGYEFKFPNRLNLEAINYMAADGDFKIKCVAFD
In short: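 His6-tagged proteins immobilized on Co-NTA resin at 64 µM final with 64-member LSM foldamer sublibraries (1 M each, as printed) in pH 7.4 HEPES/NaCl buffers (Ca2+/TCEP per target), 30 min RT; competitor peptides 200 µM final, lactose 10 mM for Gal-1. Bound fractions from LC-MS loss vs protein-free resin; KD assuming 1:1 binding.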

[3] = biological target: T3, S100B (Homo sapiens, UniProt P04271); experiment: Pull-down assay with immobilized protein and LSM libraries; assay type: binding; details: for Kd: H14 library, 1:1 binding assumed, read-out: Surface mapping KD (apparent); for Affinity class of probe (high, medium, low) in pull-down: H14 probes selected for validation
T3 construct: made in house; host or cells: Escherichia coli BL21(DE3)
T3 sequence (P04271 1-92): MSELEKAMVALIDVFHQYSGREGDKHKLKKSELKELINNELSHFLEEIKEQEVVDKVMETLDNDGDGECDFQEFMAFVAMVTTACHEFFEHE
In short: (§1)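 Buffers were HEPES pH 7.4 with 150 mM NaCl, plus 1 mM TCEP and 1 mM CaCl2 (50 mM HEPES) for S100A4 and S100B, 1 mM TCEP for Gal-1, and no additive for RecQ-WH. Immobilized protein at 64 µM was equilibrated 30 min with the LSM sublibrary, and unbound probes were measured by LC-MS.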

[4] = biological target: T4, CaM (Bos taurus, UniProt P62157); experiment: Competition pull-down with native ligand TRPV1-Ct15; assay type: binding, bovine; details: H14 library; competitor peptide 200 µM; read-out: Surface mapping KD (apparent), competition
T4 construct: made in house; host or cells: E. coli BL21 (DE3)

[5] = biological target: T4, CaM; experiment: Pull-down assay with immobilized protein and LSM libraries; assay type: binding, bovine; details: H14 library; 1:2 stoichiometry assumed; read-out: Surface mapping KD (apparent)
In short: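 CaM buffer was 20 mM HEPES pH 7.4, 150 mM NaCl, 5 mM CaCl2. LSM sublibrary members ([…]) incubated 30 min, RT, with equimolar His-tagged protein on Co-NTA resin. HPLC-MS measured unbound probes; bound fraction relative to resin-only background gave dissociation constants.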

[6] = biological target: T5, S100A4 (Homo sapiens, UniProt P26447); experiment: as above; assay type: binding; details: for Kd: H14 library, 1:1 binding assumed, read-out: Surface mapping KD (apparent); for Affinity class of probe (high, medium, low) in pull-down: H14 probes selected for validation
T5 construct: made in house; host or cells: Escherichia coli BL21(DE3)
T5 sequence (P26447 whole entry): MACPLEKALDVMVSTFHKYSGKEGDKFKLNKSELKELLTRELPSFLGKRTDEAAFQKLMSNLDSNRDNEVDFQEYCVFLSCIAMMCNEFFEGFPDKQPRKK
In short: as §1

[7] = biological target: T2, Gal-1; experiment: as above; assay type: binding; details: H14 library; 1:1 binding assumed; read-out: Surface mapping KD (apparent)
In short: as §1

T1 sequence (P15043 408-523): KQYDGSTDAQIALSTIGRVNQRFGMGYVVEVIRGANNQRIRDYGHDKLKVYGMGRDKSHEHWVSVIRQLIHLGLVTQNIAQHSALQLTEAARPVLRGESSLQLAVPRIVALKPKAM

SMILES: CC[C@H](C)[C@@H](CC(=O)N[C@H]1CCCC[C@@H]1C(N)=O)NC(=O)[C@H]1CCCC[C@@H]1NC(=O)[C@H]1CCCC[C@@H]1NC(=O)C[C@H](CC(=O)O)NC(=O)[C@H]1CCCC[C@@H]1N [H14 DI]
- Kd [1]: 429 µM
- Kd [2]: 408 µM

SMILES: NCCCC[C@@H](CC(=O)N[C@H]1CCCC[C@@H]1C(N)=O)NC(=O)[C@H]1CCCC[C@@H]1NC(=O)[C@H]1CCCC[C@@H]1NC(=O)C[C@H](CC(=O)O)NC(=O)[C@H]1CCCC[C@@H]1N [H14 DK]
- Kd [3]: 144 µM
- Kd [1]: 314 µM
- Kd [2]: 405 µM

SMILES: CC(C)C[C@@H](CC(=O)N[C@H]1CCCC[C@@H]1C(N)=O)NC(=O)[C@H]1CCCC[C@@H]1NC(=O)[C@H]1CCCC[C@@H]1NC(=O)C[C@H](CC(=O)O)NC(=O)[C@H]1CCCC[C@@H]1N [H14 DL]
- Kd [1]: 429 µM
- Kd [2]: 408 µM

SMILES: NC(=O)[C@H]1CCCC[C@@H]1NC(=O)C[C@H](Cc1c[nH]c2ccccc12)NC(=O)[C@H]1CCCC[C@@H]1NC(=O)[C@H]1CCCC[C@@H]1NC(=O)C[C@H](CC(=O)O)NC(=O)[C@H]1CCCC[C@@H]1N [H14 DW]
- Kd [3]: 200 µM
- Kd [1]: 165 µM
- Kd [4]: 439 µM

SMILES: NC(=O)[C@H]1CCCC[C@@H]1NC(=O)C[C@H](Cc1c[nH]c2ccccc12)NC(=O)[C@H]1CCCC[C@@H]1NC(=O)[C@H]1CCCC[C@@H]1NC(=O)C[C@H](CCC(=O)O)NC(=O)[C@H]1CCCC[C@@H]1N [H14 EW]
- Kd [3]: 305 µM
- Kd [1]: 212 µM
- Kd [2]: 458 µM

SMILES: N=C(N)NCCC[C@@H](CC(=O)N[C@H]1CCCC[C@@H]1C(N)=O)NC(=O)[C@H]1CCCC[C@@H]1NC(=O)[C@H]1CCCC[C@@H]1NC(=O)C[C@H](CCCCN)NC(=O)[C@H]1CCCC[C@@H]1N [H14 KR]
- Kd [5]: 22 µM
- Kd [3]: 22 µM
- Kd [1]: 486 µM
- Kd [4]: 249 µM
- Kd [2]: 323 µM

SMILES: CC(C)[C@@H](CC(=O)N[C@H]1CCCC[C@@H]1C(N)=O)NC(=O)[C@H]1CCCC[C@@H]1NC(=O)[C@H]1CCCC[C@@H]1NC(=O)C[C@H](CCCCN)NC(=O)[C@H]1CCCC[C@@H]1N [H14 KV]
- Kd [5]: 50 µM
- Kd [6]: 71 µM
- Kd [3]: 102 µM
- Kd [1]: 442 µM
- Kd [4]: 376 µM

SMILES: CSCC[C@@H](CC(=O)N[C@H]1CCCC[C@@H]1C(=O)N[C@H]1CCCC[C@@H]1C(=O)N[C@@H](CCCNC(=N)N)CC(=O)N[C@H]1CCCC[C@@H]1C(N)=O)NC(=O)[C@H]1CCCC[C@@H]1N [H14 MR]
- Kd [5]: 19 µM
- Kd [7]: 395 µM
- Kd [6]: 247 µM
- Kd [3]: 92 µM
- Kd [1]: 457 µM
- Kd [2]: 310 µM

SMILES: C[C@@H](CC(=O)N[C@H]1CCCC[C@@H]1C(N)=O)NC(=O)[C@H]1CCCC[C@@H]1NC(=O)[C@H]1CCCC[C@@H]1NC(=O)C[C@H](CCCNC(=N)N)NC(=O)[C@H]1CCCC[C@@H]1N [H14 RA]
- Kd [5]: 111 µM
- Kd [3]: 188 µM
- Kd [1]: 456 µM
- Kd [4]: 449 µM

SMILES: N=C(N)NCCC[C@@H](CC(=O)N[C@H]1CCCC[C@@H]1C(=O)N[C@H]1CCCC[C@@H]1C(=O)N[C@H](CC(=O)N[C@H]1CCCC[C@@H]1C(N)=O)Cc1ccccc1)NC(=O)[C@H]1CCCC[C@@H]1N [H14 RF]
- Kd [5]: 4 µM
- Kd [6]: 65 µM
- Affinity class of probe (high, medium, low) in pull-down [6]: medium
- Kd [3]: 16 µM
- Affinity class of probe (high, medium, low) in pull-down [3]: high
- Kd [1]: 231 µM
- Kd [4]: 350 µM

SMILES: CSCC[C@@H](CC(=O)N[C@H]1CCCC[C@@H]1C(N)=O)NC(=O)[C@H]1CCCC[C@@H]1NC(=O)[C@H]1CCCC[C@@H]1NC(=O)C[C@H](CCCNC(=N)N)NC(=O)[C@H]1CCCC[C@@H]1N [H14 RM]
- Kd [5]: 30 µM
- Kd [6]: 94 µM
- Kd [3]: 79 µM
- Kd [1]: 294 µM

SMILES: N=C(N)NCCC[C@@H](CC(=O)N[C@H]1CCCC[C@@H]1C(N)=O)NC(=O)[C@H]1CCCC[C@@H]1NC(=O)[C@H]1CCCC[C@@H]1NC(=O)C[C@H](CCCNC(=N)N)NC(=O)[C@H]1CCCC[C@@H]1N [H14 RR]
- Kd [5]: 10 µM
- Binding ([6]; H14 probes): does not
- Affinity class of probe (high, medium, low) in pull-down [6]: low
- Kd [3]: 18 µM
- Binding ([3]; H14 probes): binds
- Affinity class of probe (high, medium, low) in pull-down [3]: high
- Kd [1]: 355 µM
- Kd [4]: 103 µM

SMILES: N=C(N)NCCC[C@@H](CC(=O)N[C@H]1CCCC[C@@H]1C(=O)N[C@H]1CCCC[C@@H]1C(=O)N[C@H](CC(=O)N[C@H]1CCCC[C@@H]1C(N)=O)Cc1c[nH]c2ccccc12)NC(=O)[C@H]1CCCC[C@@H]1N [H14 RW]
- Kd [5]: 0.6 µM
- Kd [6]: 56 µM
- Kd [3]: 13 µM
- Kd [1]: 201 µM

SMILES: NC(=O)[C@H]1CCCC[C@@H]1NC(=O)C[C@H](Cc1ccccc1)NC(=O)[C@H]1CCCC[C@@H]1NC(=O)[C@H]1CCCC[C@@H]1NC(=O)C[C@H](CO)NC(=O)[C@H]1CCCC[C@@H]1N [H14 SF]
- Kd [5]: 30 µM
- Kd [7]: 267 µM
- Kd [6]: 71 µM
- Kd [3]: 105 µM
- Kd [1]: 182 µM
- Kd [2]: 312 µM

SMILES: NC(=O)CC[C@@H](CC(=O)N[C@H]1CCCC[C@@H]1C(N)=O)NC(=O)[C@H]1CCCC[C@@H]1NC(=O)[C@H]1CCCC[C@@H]1NC(=O)C[C@H](Cc1c[nH]c2ccccc12)NC(=O)[C@H]1CCCC[C@@H]1N [H14 WQ]
- Kd [5]: 16 µM
- Kd [6]: 191 µM
- Kd [3]: 161 µM
- Kd [1]: 473 µM
- Kd [4]: 495 µM

SMILES: NCCCC[C@@H](CC(=O)N[C@H]1CCCC[C@@H]1C(N)=O)NC(=O)[C@H]1CCCC[C@@H]1NC(=O)[C@H]1CCCC[C@@H]1NC(=O)C[C@H](Cc1ccc(O)cc1)NC(=O)[C@H]1CCCC[C@@H]1N [H14 YK]
- Kd [5]: 17 µM
- Kd [6]: 146 µM
- Kd [3]: 89 µM
- Kd [1]: 411 µM
